The source of these data is PubChem BioAssay AID1224900.

What is called EC50 is the concentration that produces a half-maximal response.

This test deals with MDA-MB-231 viability, PrestoBlue fluorescence. Nature of the test: antiproliferative effect, triple-negative breast cancer line – cell-based, MDA-MB-231, mTOR inhibitor project, dose response (AID 1224900).

For `CCOC(Cn1nc(-c2ccc3oc(N)nc3c2)c2c(N)ncnc21)OCC`, the EC50 is 72 nM.
